# The source made the active and inactive calls. The calls are words filed in the database; no cut-off is given here.
# Tests used:
# [1] = Drug uptake in human MDA-MB-231 cells assessed as accumulation by measuring fluorescent signals at 1 uM incubated for 1 hrs by confocal laser-scanning microscopic analysis; assay type: ADME, cell-based; conditions: mda-mb-231, 1 h
# SGC-7901 [2] = assay: Induction of cell cycle arrest in human SGC-7901 cells assessed as accumulation of cells at G2/M phase at 50 uM incubated for 24 hrs by PI staining based flow cytometric analysis (reference value: 0.18%); assay type: functional
# MDA-MB-231 [3] = assay: Induction of cell cycle arrest in human MDA-MB-231 cells assessed as accumulation of cells at G0/G1 phase at 20 uM incubated for 24 hrs by PI staining based flow cytometric analysis (reference value: 62.73%); assay type: functional
# SGC-7901 [4] = assay: Induction of cell cycle arrest in human SGC-7901 cells assessed as accumulation of cells at G2/M phase at 20 uM incubated for 24 hrs by PI staining based flow cytometric analysis (reference value: 0.18%); assay type: functional
# [5] = Reduction in Cyclin B1 level in human MDA-MB-231 cells assessed as fold change at 15 uM measured after 72 hrs by Western blot analysis relative to control; assay type: functional
# SGC-7901 [6] = assay: Induction of cell cycle arrest in human SGC-7901 cells assessed as accumulation of cells at G0/G1 phase at 20 uM incubated for 24 hrs by PI staining based flow cytometric analysis (reference value: 59.67%); assay type: functional
# MDA-MB-231 [7] = assay: Cytotoxicity against human MDA-MB-231 cells assessed as cell inhibition measured after 72 hrs by MTT assay; assay type: functional, cell-based; conditions: MDA-MB-231, 72 h
# SGC-7901 [8] = assay: Induction of cell cycle arrest in human SGC-7901 cells assessed as accumulation of cells at S phase at 50 uM incubated for 24 hrs by PI staining based flow cytometric analysis (reference value: 40.15%); assay type: functional
# MDA-MB-231 [9] = assay: Induction of autophagy in human MDA-MB-231 cells assessed as increase in acidic vesicle formation by measuring fluorescence signal from lyso-red Tracker at 10 to 20 uM measured after 24 hrs by Lyso-RedTracker staining based confocal laser-scanning microscopic analysis; assay type: functional, cell-based; conditions: dose 10-20 µM
# A549 = assay: Cytotoxicity against human A549 cells assessed as cell inhibition measured after 72 hrs by MTT assay; assay type: functional, cell-based; conditions: A549, 72 h
# [10] = Reduction in Cyclin B1 level in human MDA-MB-231 cells assessed as fold change at 10 uM measured after 72 hrs by Western blot analysis relative to control; assay type: functional
# [11] = Reduction in CDK1 level in human MDA-MB-231 cells assessed as fold change at 10 uM measured after 72 hrs by Western blot analysis relative to control; assay type: functional
# SGC-7901 [12] = assay: Induction of cell cycle arrest in human SGC-7901 cells assessed as accumulation of cells at G2/M phase at 5 uM incubated for 24 hrs by PI staining based flow cytometric analysis (reference value: 0.18%); assay type: functional
# [13] = Reduction in Cyclin B1 level in human MDA-MB-231 cells assessed as fold change in presence of 3-MA at 15 uM measured after 72 hrs by Western blot analysis relative to control; assay type: functional
# SGC-7901 [14] = assay: Induction of cell cycle arrest in human SGC-7901 cells assessed as accumulation of cells at G2/M phase at 10 uM incubated for 24 hrs by PI staining based flow cytometric analysis (reference value: 0.18%); assay type: functional
# SGC-7901 [15] = assay: Induction of cell cycle arrest in human SGC-7901 cells assessed as accumulation of cells at S phase at 5 uM incubated for 24 hrs by PI staining based flow cytometric analysis (reference value: 40.15%); assay type: functional
# MDA-MB-231 [16] = assay: Induction of cell cycle arrest in human MDA-MB-231 cells assessed as accumulation of cells at S phase at 10 uM incubated for 24 hrs by PI staining based flow cytometric analysis (reference value: 29.80%); assay type: functional
# [17] = Reduction in CDK1 level in human MDA-MB-231 cells assessed as fold change at 5 uM measured after 72 hrs by Western blot analysis relative to control; assay type: functional
# SGC-7901 [18] = assay: Cytotoxicity against human SGC-7901 cells assessed as cell inhibition measured after 72 hrs by MTT assay; assay type: functional, cell-based; conditions: SGC-7901, 72 h
# MDA-MB-231 [19] = assay: Induction of cell cycle arrest in human MDA-MB-231 cells assessed as accumulation of cells at G0/G1 phase at 10 uM incubated for 24 hrs by PI staining based flow cytometric analysis (reference value: 62.73%); assay type: functional
# MDA-MB-231 [20] = assay: Induction of cell cycle arrest in human MDA-MB-231 cells assessed as accumulation of cells at S phase at 50 uM incubated for 24 hrs by PI staining based flow cytometric analysis (reference value: 29.80%); assay type: functional
# MDA-MB-231 [21] = assay: Induction of autophagy in human MDA-MB-231 cells assessed as fold increase in LC3I/II protein level at 15 uM measured after 6 hrs by Western blot analysis relative to control; assay type: functional
# MDA-MB-231 [22] = assay: Induction of autophagy in human MDA-MB-231 cells assessed as fold increase in LC3I/II protein level at 5 uM measured after 6 hrs by Western blot analysis relative to control; assay type: functional
# LS180 = assay: Cytotoxicity against human LS180 cells assessed as cell inhibition measured after 72 hrs by MTT assay; assay type: functional, cell-based; conditions: LS180, 72 h
# [23] = Reduction in CDK1 level in human MDA-MB-231 cells assessed as fold change at 15 uM measured after 72 hrs by Western blot analysis relative to control; assay type: functional
# MDA-MB-231 [24] = assay: Induction of autophagy in human MDA-MB-231 cells assessed as fold increase in Lamp1 level at 15 uM measured after 6 hrs by Western blot analysis relative to control; assay type: functional
# SGC-7901 [25] = assay: Induction of cell cycle arrest in human SGC-7901 cells assessed as accumulation of cells at G0/G1 phase at 5 uM incubated for 24 hrs by PI staining based flow cytometric analysis (reference value: 59.67%); assay type: functional
# [26] = Reduction in Cyclin B1 level in human MDA-MB-231 cells assessed as fold change at 5 uM measured after 72 hrs by Western blot analysis relative to control; assay type: functional
# MDA-MB-231 [27] = assay: Induction of cell cycle arrest in human MDA-MB-231 cells assessed as accumulation of cells at S phase at 5 uM incubated for 24 hrs by PI staining based flow cytometric analysis (reference value: 29.80%); assay type: functional
# MDA-MB-231 [28] = assay: Induction of autophagy in human MDA-MB-231 cells assessed as increase in lysosomal membrane permeabilization by measuring red fluorescence in cytoplasm at 10 to 20 uM measured after 24 hrs by acridine orange (AO) staining assay; assay type: functional, cell-based; conditions: dose 10-20 µM
# MDA-MB-231 [29] = assay: Induction of cell cycle arrest in human MDA-MB-231 cells assessed as accumulation of cells at G2/M phase at 10 uM incubated for 24 hrs by PI staining based flow cytometric analysis (reference value: 7.47%); assay type: functional
# SGC-7901 [30] = assay: Induction of cell cycle arrest in human SGC-7901 cells assessed as accumulation of cells at G0/G1 phase at 10 uM incubated for 24 hrs by PI staining based flow cytometric analysis (reference value: 59.67%); assay type: functional
# MDA-MB-231 [31] = assay: Induction of cell cycle arrest in human MDA-MB-231 cells assessed as accumulation of cells at S phase at 20 uM incubated for 24 hrs by PI staining based flow cytometric analysis (reference value: 29.80%); assay type: functional
# MDA-MB-231 [32] = assay: Induction of cell cycle arrest in human MDA-MB-231 cells assessed as accumulation of cells at G0/G1 phase at 50 uM incubated for 24 hrs by PI staining based flow cytometric analysis (reference value: 62.73%); assay type: functional
# SGC-7901 [33] = assay: Induction of cell cycle arrest in human SGC-7901 cells assessed as accumulation of cells at S phase at 10 uM incubated for 24 hrs by PI staining based flow cytometric analysis (reference value: 40.15%); assay type: functional
# MDA-MB-231 [34] = assay: Induction of autophagy in human MDA-MB-231 cells assessed as fold increase in Lamp1 level at 10 uM measured after 6 hrs by Western blot analysis relative to control; assay type: functional
# SGC-7901 [35] = assay: Induction of cell cycle arrest in human SGC-7901 cells assessed as accumulation of cells at S phase at 20 uM incubated for 24 hrs by PI staining based flow cytometric analysis (reference value: 40.15%); assay type: functional
# MDA-MB-231 [36] = assay: Induction of cell cycle arrest in human MDA-MB-231 cells assessed as accumulation of cells at G2/M phase at 5 uM incubated for 24 hrs by PI staining based flow cytometric analysis (reference value: 7.47%); assay type: functional
# MDA-MB-231 [37] = assay: Induction of cell cycle arrest in human MDA-MB-231 cells assessed as accumulation of cells at G2/M phase at 50 uM incubated for 24 hrs by PI staining based flow cytometric analysis (reference value: 7.47%); assay type: functional
# MDA-MB-231 [38] = assay: Induction of autophagy in human MDA-MB-231 cells assessed as fold increase in Lamp1 level at 5 uM measured after 6 hrs by Western blot analysis relative to control; assay type: functional
# [39] = Drug uptake in human MDA-MB-231 cells assessed as accumulation by measuring lysosome-specific fluorescent signals in presence of excess eudistomin Y1 at 1 uM incubated for 1 hrs by confocal laser-scanning microscopic analysis; assay type: ADME, cell-based; conditions: mda-mb-231, 1 h
# MDA-MB-231 [40] = assay: Induction of autophagy in human MDA-MB-231 cells assessed as fold increase in LC3I/II protein level at 10 uM measured after 6 hrs by Western blot analysis relative to control; assay type: functional
# [41] = Reduction in CDK1 level in human MDA-MB-231 cells assessed as fold change in presence of 3-MA at 15 uM measured after 72 hrs by Western blot analysis relative to control; assay type: functional
# [42] = Drug uptake in human MDA-MB-231 cells assessed as accumulation by measuring lysosome-specific fluorescent signals at 2 uM incubated for 1 hrs by confocal laser-scanning microscopic analysis; assay type: ADME, cell-based; conditions: mda-mb-231, 1 h
# SGC-7901 [43] = assay: Induction of cell cycle arrest in human SGC-7901 cells assessed as accumulation of cells at G0/G1 phase at 50 uM incubated for 24 hrs by PI staining based flow cytometric analysis (reference value: 59.67%); assay type: functional
# MDA-MB-231 [44] = assay: Induction of cell cycle arrest in human MDA-MB-231 cells assessed as accumulation of cells at G0/G1 phase at 5 uM incubated for 24 hrs by PI staining based flow cytometric analysis (reference value: 62.73%); assay type: functional
# HepG2 = assay: Cytotoxicity against human HepG2 cells assessed as cell inhibition measured after 72 hrs by MTT assay; assay type: functional, cell-based; conditions: HepG2, 72 h
# MDA-MB-231 [45] = assay: Induction of cell cycle arrest in human MDA-MB-231 cells assessed as accumulation of cells at G2/M phase at 20 uM incubated for 24 hrs by PI staining based flow cytometric analysis (reference value: 7.47%); assay type: functional
# MDA-MB-231 [46] = assay: Antiproliferative activity against human MDA-MB-231 cells assessed as cell viability in presence of 3-MA at 10 to 50 uM measured after 72 hrs by MTT assay; assay type: functional, cell-based; conditions: dose 10-50 µM
smiles,measurement,setting,value
COc1ccc(Cn2c3ccccc3c3ccnc(C(=O)c4ccccc4)c32)cc1,Drug uptake,[1],Active
same,Activity,SGC-7901 [2],50.5%
same,Activity,MDA-MB-231 [3],29.13%
same,Activity,SGC-7901 [4],60.49%
same,fold change (FC),[5],0.66
same,Activity,SGC-7901 [6],6.9%
same,IC50,MDA-MB-231 [7],20.5 µM
same,Activity,SGC-7901 [8],45.27%
same,Activity,MDA-MB-231 [9],Active
same,IC50,A549,14.8 µM
same,fold change (FC),[10],0.98
same,fold change (FC),[11],0.52
same,Activity,SGC-7901 [12],18.43%
same,fold change (FC),[13],0.8
same,Activity,SGC-7901 [14],56.48%
same,Activity,SGC-7901 [15],40.21%
same,Activity,MDA-MB-231 [16],31.51%
same,fold change (FC),[17],0.78
same,IC50,SGC-7901 [18],12.1 µM
same,Activity,MDA-MB-231 [19],49.96%
same,Activity,MDA-MB-231 [20],11.55%
same,fold change (FC),MDA-MB-231 [21],1.51
same,fold change (FC),MDA-MB-231 [22],1.12
same,IC50,LS180,2.9 µM
same,fold change (FC),[23],0.5
same,fold change (FC),MDA-MB-231 [24],1.39
same,Activity,SGC-7901 [25],41.36%
same,fold change (FC),[26],1.01
same,Activity,MDA-MB-231 [27],21.05%
same,Activity,MDA-MB-231 [28],Active
same,Activity,MDA-MB-231 [29],18.53%
same,Activity,SGC-7901 [30],8%
same,Activity,MDA-MB-231 [31],22.49%
same,Activity,MDA-MB-231 [32],12.51%
same,Activity,SGC-7901 [33],35.51%
same,fold change (FC),MDA-MB-231 [34],1.21
same,Activity,SGC-7901 [35],32.61%
same,Activity,MDA-MB-231 [36],14.71%
same,Activity,MDA-MB-231 [37],75.93%
same,fold change (FC),MDA-MB-231 [38],1.04
same,Drug uptake,[39],Not Active
same,fold change (FC),MDA-MB-231 [40],1.39
same,fold change (FC),[41],0.78
same,Drug uptake,[42],Active
same,Activity,SGC-7901 [43],4.23%
same,Activity,MDA-MB-231 [44],64.23%
same,IC50,HepG2,9.6 µM
same,Activity,MDA-MB-231 [45],48.37%
same,Activity,MDA-MB-231 [46],inactive
Cn1c2ccccc2c2ccnc(C(=O)c3ccc(OCc4ccccc4)cc3)c21,IC50,MDA-MB-231 [7],19.8 µM
same,IC50,A549,34.2 µM
same,IC50,SGC-7901 [18],40.2 µM
same,IC50,LS180,33.6 µM
same,IC50,HepG2,62.4 µM

# — ChEMBL document CHEMBL5385881, “Design, synthesis, and discovery of Eudistomin Y derivatives as lysosome-targeted antiproliferation agents” (Eur J Med Chem, 2023)
